Source: patent US20160311831A1, “Imidazotriazinones as PDE1 Inhibitors” (H. Lundbeck A/S, priority 2015, published 2016)

Experiments:
Assay type in all cases: biochemical
[1] = target: PDE1C (Homo sapiens, UniProt Q14123); assay: PDE1 inhibition assay (PDE1C), SPA with tritium labelled cAMP; conditions: 15 nM tritium labelled cAMP, 1 hr at room temperature
Method: (§1) PDE1A, PDE1B and PDE1C assays were performed as follows: the assays was performed in 60 μL samples containing a fixed amount of the PDE1 enzym1 (sufficient to convert 20-25% of the cyclic nucleotide substrate), a buffer (50 mM HEPES pH 7.6; 10 mM MgCl2; 0.02% Tween20), 0.1 mg/mL BSA, 15 nM tritium labelled cAMP and varying amounts of inhibitors. Reactions were initiated by addition of the cyclic nucleotide substrate, and reactions were allowed to proceed for 1 hr at room temperature before being terminated through mixing with 20 μL (0.2 mg) yttrium silicate SPA beads (PerkinElmer). The beads were allowed to settle for 1 hr in the dark before the plates were counted in a Wallac 1450 Microbeta counter. The measured signals were converted to activity relative to an uninhibited control (100%) and IC50 values were calculated using XIFit (model 205, IDBS).

[2] = target: PDE9 (Homo sapiens, UniProt O76083); assay: PDE9 inhibition assay, SPA with 3H-cAMP; conditions: compound at 10 microM; 10 nM 3H-cAMP, 1 hr incubation
Chain of PDE9 (O76083 whole entry): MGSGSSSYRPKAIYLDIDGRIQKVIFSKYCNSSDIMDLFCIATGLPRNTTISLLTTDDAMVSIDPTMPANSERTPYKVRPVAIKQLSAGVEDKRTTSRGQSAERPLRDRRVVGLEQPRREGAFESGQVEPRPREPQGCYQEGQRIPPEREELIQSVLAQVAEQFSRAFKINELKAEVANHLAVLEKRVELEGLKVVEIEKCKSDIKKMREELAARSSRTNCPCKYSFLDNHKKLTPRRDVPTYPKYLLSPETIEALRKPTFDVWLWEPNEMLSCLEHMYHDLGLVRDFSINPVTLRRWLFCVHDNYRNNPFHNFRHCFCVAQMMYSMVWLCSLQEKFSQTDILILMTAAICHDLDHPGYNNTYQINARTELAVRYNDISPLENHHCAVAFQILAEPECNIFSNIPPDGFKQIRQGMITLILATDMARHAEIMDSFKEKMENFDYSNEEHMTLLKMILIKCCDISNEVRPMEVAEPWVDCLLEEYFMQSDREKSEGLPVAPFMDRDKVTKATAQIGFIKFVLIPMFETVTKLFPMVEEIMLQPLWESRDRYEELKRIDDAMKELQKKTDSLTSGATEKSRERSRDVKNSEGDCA
Method: A PDE9 assay may for example, be performed as follows: The assay is performed in 60 μL samples containing a fixed amount of the relevant PDE enzyme (sufficient to convert 20-25% of the cyclic nucleotide substrate), a buffer (50 mM HEPES7.6; 10 mM MgCl2; 0.02% Tween20), 0.1 mg/mL BSA, 225 pCi of ^3H-labelled cyclic nucleotide substrate, tritium labeled cAMP to a final concentration of 5 nM and varying amounts of inhibitors. Reactions are initiated by addition of the cyclic nucleotide substrate, and reactions are allowed to proceed for one hr at room temperature before being terminated through mixing with 15 μL 8 mg/mL yttrium silicate SPA beads (Amersham). The beads are allowed to settle for one hr in the dark before the plates are counted in a Wallac 1450 Microbeta counter. The measured signal can be converted to activity relative to an uninhibited control (100%) and IC50 values can be calculated using the Xlfit extension to EXCEL.
In the context of the present invention the assay was performed in 60 uL assay buffer (50 mM HEPES pH 7.6; 10 mM MgCl2; 0.02% Tween20) containing enough PDE9 to convert 20-25% of 10 nM ^3H-cAMP and varying amounts of inhibitors. Following a 1 hr incubation the reactions were terminated by addition of 15 uL 8 mg/mL yttrium silicate SPA beads (Amersham). The beads were allowed to settle for one hr in the dark before the plates were counted in a Wallac 1450 Microbeta counter.

[3] = target: PDE1A (Homo sapiens, UniProt P54750); assay: PDE1 inhibition assay (PDE1A), SPA with tritium labelled cAMP; conditions: 15 nM tritium labelled cAMP, 1 hr at room temperature
Chain of PDE1A (P54750 whole entry): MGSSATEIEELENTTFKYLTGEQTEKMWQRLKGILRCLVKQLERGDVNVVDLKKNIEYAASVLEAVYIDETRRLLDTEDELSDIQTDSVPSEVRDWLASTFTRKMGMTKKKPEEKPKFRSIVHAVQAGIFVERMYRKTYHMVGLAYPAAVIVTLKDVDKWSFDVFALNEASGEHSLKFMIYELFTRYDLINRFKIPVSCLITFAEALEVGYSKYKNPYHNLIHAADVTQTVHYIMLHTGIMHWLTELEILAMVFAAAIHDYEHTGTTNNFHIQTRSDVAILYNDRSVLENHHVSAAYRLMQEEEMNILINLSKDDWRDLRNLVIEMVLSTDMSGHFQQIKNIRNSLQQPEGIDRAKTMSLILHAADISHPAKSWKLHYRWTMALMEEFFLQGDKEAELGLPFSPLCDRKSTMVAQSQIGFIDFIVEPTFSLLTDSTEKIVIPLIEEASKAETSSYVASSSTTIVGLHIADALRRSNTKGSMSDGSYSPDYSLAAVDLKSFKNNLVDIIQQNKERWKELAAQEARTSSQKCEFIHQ
Method: as §1

[4] = target: PDE1B (Homo sapiens, UniProt Q01064); assay: PDE1 inhibition assay (PDE1B), SPA with tritium labelled cAMP; conditions: 15 nM tritium labelled cAMP, 1 hr at room temperature
Chain of PDE1B (Q01064 whole entry): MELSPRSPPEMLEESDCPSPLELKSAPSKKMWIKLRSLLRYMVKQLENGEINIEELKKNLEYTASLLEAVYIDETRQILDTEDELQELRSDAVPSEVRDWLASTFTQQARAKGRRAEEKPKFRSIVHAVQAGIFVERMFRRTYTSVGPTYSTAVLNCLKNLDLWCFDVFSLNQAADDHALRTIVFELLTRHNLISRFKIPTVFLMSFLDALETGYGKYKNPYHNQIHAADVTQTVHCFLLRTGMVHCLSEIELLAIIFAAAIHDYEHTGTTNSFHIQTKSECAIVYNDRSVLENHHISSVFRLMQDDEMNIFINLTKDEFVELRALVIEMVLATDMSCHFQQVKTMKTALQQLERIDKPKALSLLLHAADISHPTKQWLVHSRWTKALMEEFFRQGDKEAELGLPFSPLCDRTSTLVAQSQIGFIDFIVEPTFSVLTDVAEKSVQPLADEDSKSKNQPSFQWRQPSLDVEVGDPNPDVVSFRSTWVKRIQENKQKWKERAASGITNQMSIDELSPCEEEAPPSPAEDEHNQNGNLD
Method: as §1

Chain of PDE1C (Q14123 whole entry): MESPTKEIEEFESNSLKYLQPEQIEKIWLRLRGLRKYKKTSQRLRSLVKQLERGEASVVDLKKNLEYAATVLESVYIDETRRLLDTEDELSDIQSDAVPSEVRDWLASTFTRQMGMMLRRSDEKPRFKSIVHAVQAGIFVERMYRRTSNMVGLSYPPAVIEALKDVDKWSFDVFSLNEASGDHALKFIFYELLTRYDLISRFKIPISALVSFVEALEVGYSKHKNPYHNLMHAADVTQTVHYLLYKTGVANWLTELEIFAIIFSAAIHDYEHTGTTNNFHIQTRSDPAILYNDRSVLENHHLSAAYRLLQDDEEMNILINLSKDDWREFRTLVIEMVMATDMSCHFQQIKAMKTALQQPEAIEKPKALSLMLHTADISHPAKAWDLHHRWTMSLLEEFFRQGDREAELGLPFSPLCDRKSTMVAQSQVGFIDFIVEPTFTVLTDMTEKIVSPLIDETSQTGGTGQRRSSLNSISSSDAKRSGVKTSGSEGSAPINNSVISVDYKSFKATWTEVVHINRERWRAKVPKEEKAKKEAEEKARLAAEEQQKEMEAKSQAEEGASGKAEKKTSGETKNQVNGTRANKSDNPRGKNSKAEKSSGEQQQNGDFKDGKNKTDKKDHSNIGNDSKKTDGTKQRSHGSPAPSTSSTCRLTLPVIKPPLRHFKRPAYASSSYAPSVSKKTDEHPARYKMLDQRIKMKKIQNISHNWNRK

SMILES	IC50 [1] [nM]	% inhibition of PDE9 at 10 microM [2] [%]	IC50 [3] [nM]	IC50 [4] [nM]	inhibition at 10 µM [2] [%]
Cc1ccc(Cc2nn3c(C4CCOCC4)ncc3c(=O)n2CC2CCC(C)CC2)cc1 (single isomer, unassigned) [11 Stereoisomer 1]	69	−9	43	33	–
Cc1ccc(Cc2nn3c(C4CCOCC4)ncc3c(=O)n2CC2CCC(C)CC2)cc1 (single isomer, unassigned) [11 Stereoisomer 2]	5	15	8	10	–
Cc1ccc(Cc2nn3c(C4CCOCC4)ncc3c(=O)n2CC2CCOC2)cc1 (single isomer, unassigned) [12 Stereoisomer 1]	105	3	–	258	–
Cc1ccc(Cc2nn3c(C4CCOCC4)ncc3c(=O)n2CC2CCOC2)cc1 (single isomer, unassigned) [12 Stereoisomer 2]	151	7	100	67	–
Cc1nn2c(C3CCOCC3)ncc2c(=O)n1CC1CCCCC1 [Example 1, 3-(Cyclohexylmethyl)-2-methyl-7-(tetrahydro-2H-pyran-4-yl)imidazo[5,1-f][1,2,4]triazin-4(3H)-one]	9	–	15	30	26
Cc1ccc(Cc2nn3c(C4CCOCC4)ncc3c(=O)n2CC(C)C)cc1 [Example 5, 3-isobutyl-2-(4-methylbenzyl)-7-(tetrahydro-2H-pyran-4-yl)imidazo[5,1-f][1,2,4]triazin-4(3H)-one]	38	–	47	52	-3
Cc1ccc(Cc2nn3c(C4CCOCC4)ncc3c(=O)n2CC2CCCC2)cc1 [Example 6, 3-(Cyclopentylmethyl)-2-(4-methylbenzyl)-7-(tetrahydro-2H-pyran-4-yl)imidazo[5,1-f][1,2,4]triazin-4(3H)-one]	4	–	29	63	2
Cc1ccc(Cc2nn3c(C4CCOCC4)ncc3c(=O)n2CC2CCCCC2)cc1 [Example 7, 3-(Cyclohexylmethyl)-2-(4-methylbenzyl)-7-(tetrahydro-2H-pyran-4-yl)imidazo[5,1-f][1,2,4]triazin-4(3H)-one]	11	–	40	26	11
Cc1ccc(Cc2nn3c(C4CCOCC4)ncc3c(=O)n2CC2CC2)cc1 [Example 8, 3-(Cyclopropylmethyl)-2-(4-methylbenzyl)-7-(tetrahydro-2H-pyran-4-yl)imidazo[5,1-f][1,2,4]triazin-4(3H)-one]	78	–	63	103	9
Cc1ccc(Cc2nn3c(C4CCOCC4)ncc3c(=O)n2CC2CCOCC2)cc1 [Example 9, 2-(4-Methylbenzyl)-7-(tetrahydro-2H-pyran-4-yl)-3-((tetrahydro-2H-pyran-4-yl)methyl)imidazo[5,1-f][1,2,4]triazin-4(3H)-one]	23	–	583	364	12
Cc1ccc(Cc2nn3c(C4CCOCC4)ncc3c(=O)n2CC2CCC2)cc1 [Example 10, 3-(Cyclobutylmethyl)-2-(4-methylbenzyl)-7-(tetrahydro-2H-pyran-4-yl)imidazo[5,1-f][1,2,4]triazin-4(3H)-one]	62	–	245	103	-11
O=c1c2cnc(C3CCOCC3)n2ncn1CC1CCCC1 [Example 28, 3-(Cyclopentylmethyl)-7-(tetrahydro-2H-pyran-4-yl)imidazo[5,1-f][1,2,4]triazin-4(3H)-one]	86	–	–	–	10

More lines, now with the values ahead:

IC50 [1] [nM]	% inhibition of PDE9 at 10 microM [2] [%]	IC50 [3] [nM]	IC50 [4] [nM]	inhibition at 10 µM [2] [%]	SMILES
984	–	732	258	4	Cc1ccc(Cc2nn3c(C4CCOCC4)ncc3c(=O)n2C)cc1 [Example 2, 3-Methyl-2-(4-methylbenzyl)-7-(tetrahydro-2H-pyran-4-yl)imidazo[5,1-f][1,2,4]triazin-4(3H)-one]
279	–	180	79	15	CCn1c(Cc2ccc(C)cc2)nn2c(C3CCOCC3)ncc2c1=O [Example 3, 3-Ethyl-2-(4-methylbenzyl)-7-(tetrahydro-2H-pyran-4-yl)imidazo[5,1-f][1,2,4]triazin-4(3H)-one]
61	–	83	40	9	CCCn1c(Cc2ccc(C)cc2)nn2c(C3CCOCC3)ncc2c1=O [Example 4, 2-(4-Methylbenzyl)-3-propyl-7-(tetrahydro-2H-pyran-4-yl)imidazo[5,1-f][1,2,4]triazin-4(3H)-one]
29	–	127	258	-4	Cc1nn2c(C3CCOCC3)ncc2c(=O)n1Cc1cccc(F)c1 [Example 13, 3-(3-Fluorobenzyl)-2-methyl-7-(tetrahydro-2H-pyran-4-yl)imidazo[5,1-f][1,2,4]triazin-4(3H)-one]
35	–	77	134	18	Cc1nn2c(C3CCOCC3)ncc2c(=O)n1Cc1ccc(F)cc1 [Example 14, 3-(4-Fluorobenzyl)-2-methyl-7-(tetrahydro-2H-pyran-4-yl)imidazo[5,1-f][1,2,4]triazin-4(3H)-one]
17	–	70	162	-13	Cc1nn2c(C3CCOCC3)ncc2c(=O)n1Cc1ccccc1 [Example 15, 3-Benzyl-2-methyl-7-(tetrahydro-2H-pyran-4-yl)imidazo[5,1-f][1,2,4]triazin-4(3H)-one]
20	–	118	220	11	Cc1nn2c(C3CCOCC3)ncc2c(=O)n1Cc1ccccc1Cl [Example 16, 3-(2-Chlorobenzyl)-2-methyl-7-(tetrahydro-2H-pyran-4-yl)imidazo[5,1-f][1,2,4]triazin-4(3H)-one]
14	–	63	159	5	Cc1nn2c(C3CCOCC3)ncc2c(=O)n1Cc1cccc(Cl)c1 [Example 17, 3-(3-Chlorobenzyl)-2-methyl-7-(tetrahydro-2H-pyran-4-yl)imidazo[5,1-f][1,2,4]triazin-4(3H)-one]
20	–	265	188	-30	Cc1cccc(Cn2c(C)nn3c(C4CCOCC4)ncc3c2=O)c1 [Example 18, 2-Methyl-3-(3-methylbenzyl)-7-(tetrahydro-2H-pyran-4-yl)imidazo[5,1-f][1,2,4]triazin-4(3H)-one]
52	–	115	259	4	COc1cccc(Cn2c(C)nn3c(C4CCOCC4)ncc3c2=O)c1 [Example 19, 3-(3-Methoxybenzyl)-2-methyl-7-(tetrahydro-2H-pyran-4-yl)imidazo[5,1-f][1,2,4]triazin-4(3H)-one]
15	–	54	139	21	Cc1nn2c(C3CCOCC3)ncc2c(=O)n1Cc1ccccc1F [Example 20, 3-(2-Fluorobenzyl)-2-methyl-7-(tetrahydro-2H-pyran-4-yl)imidazo[5,1-f][1,2,4]triazin-4(3H)-one]
37	–	367	454	13	Cc1ccccc1Cn1c(C)nn2c(C3CCOCC3)ncc2c1=O [Example 21, 2-Methyl-3-(2-methylbenzyl)-7-(tetrahydro-2H-pyran-4-yl)imidazo[5,1-f][1,2,4]triazin-4(3H)-one]
77	–	58	66	18	Cc1ccc(Cn2c(C)nn3c(C4CCOCC4)ncc3c2=O)cc1 [Example 22, 2-Methyl-3-(4-methylbenzyl)-7-(tetrahydro-2H-pyran-4-yl)imidazo[5,1-f][1,2,4]triazin-4(3H)-one]
436	–	–	–	17	O=c1c2cnc(C3CCOCC3)n2ncn1Cc1cccc(F)c1 [Example 27, 3-(3-Fluorobenzyl)-7-(tetrahydro-2H-pyran-4-yl)imidazo[5,1-f][1,2,4]triazin-4(3H)-one]
